Measurements as given in article PMC7881117 (Nature Communications, 2021).

Molecular target: T1, p53 (Homo sapiens, UniProt P04637)
T1 construct: gene TP53
Experiment: SPR with immobilized p53; also STD NMR, […]-13C NCO NMR titration, SAXS and AUC with NTD
Assay type: binding

T1 sequence (P04637 whole entry): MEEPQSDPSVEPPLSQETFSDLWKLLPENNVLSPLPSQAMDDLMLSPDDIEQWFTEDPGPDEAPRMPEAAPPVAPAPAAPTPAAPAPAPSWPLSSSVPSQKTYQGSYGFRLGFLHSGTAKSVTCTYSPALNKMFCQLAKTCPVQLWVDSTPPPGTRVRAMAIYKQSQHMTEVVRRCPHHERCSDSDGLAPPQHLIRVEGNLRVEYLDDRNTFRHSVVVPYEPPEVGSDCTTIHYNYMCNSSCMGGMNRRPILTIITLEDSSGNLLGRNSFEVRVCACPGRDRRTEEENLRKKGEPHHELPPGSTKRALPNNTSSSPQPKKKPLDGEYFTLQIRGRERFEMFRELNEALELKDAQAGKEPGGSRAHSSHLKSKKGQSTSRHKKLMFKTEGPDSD

For `O=C(O[C@@H]1Cc2c(O)cc(O)cc2O[C@@H]1c1cc(O)c(O)c(O)c1)c1cc(O)c(O)c(O)c1` [EGCG, Epigallocatechin gallate], the Kd was 1600 ± 1400 nM.
